Experimental findings from patent US11731986B2 (Sanford Burnham Prebys Medical Discovery Institute, priority 2017, dated 2023) are described below.

The target of this experiment is T1, human LMPTP-A (Homo sapiens, UniProt P24666).
T1 sequence (P24666 1-158): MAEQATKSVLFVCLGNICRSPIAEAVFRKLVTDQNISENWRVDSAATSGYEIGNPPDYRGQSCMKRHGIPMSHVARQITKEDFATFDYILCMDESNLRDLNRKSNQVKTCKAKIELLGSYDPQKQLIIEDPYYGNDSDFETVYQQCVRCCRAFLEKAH
The experiment in a line: Enzyme Assay of Inhibition of LMPTP-A (phosphatase assay, OMFP or pNPP substrate). In kind it is biochemical. The conditions noted are these: Bis-Tris pH 6.0, 37° C. In outline: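 Buffer 50 mM Bis-Tris pH 6.0, 1 mM DTT, 0.01% Triton X-100, 37 °C; OMFP read continuously (485/525 nm) or pNPP stopped with NaOH, 405 nm. IC50 from concentration vs % activity. Selectivity: 40 μM compound with 0.4 mM OMFP or 5 mM pNPP; reversibility: 50 nM enzyme, 10 μM compound, 5 min, 100× dilution.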

One may read the IC50 as the midpoint of a concentration-inhibition curve. A high value points to lower potency.

Take `O=C(NCCCN1CCCCC1)c1nc2cc(-c3cc(NCCCN4CCCCC4)c4cnccc4n3)ccc2[nH]1` [N-(3-(piperidin-1-yl)propyl)-5-(4-((3-(piperidin-1-yl)propyl)amino)-1,6-naphthyridin-2-yl)-1H-benzo[d]imidazole-2-carboxamide]: the IC50 is no more than 1 µM. With `O=C(NCCCN1CCCCC1)c1ccc(-c2cc(NCCCN3CCCCC3)c3cnccc3n2)cn1` [N-(3-(piperidin-1-yl)propyl)-5-(4-((3-(piperidin-1-yl)propyl)amino)-1,6-naphthyridin-2-yl)picolinamide] the figure was no less than 20 µM; with `O=C(NCCCN1CCCCC1)c1nc2cc(-c3cc(Nc4ccc(CN5CCCC5)cc4)c4cnccc4n3)ccc2[nH]1` [N-(3-(piperidin-1-yl)propyl)-5-(4-((4-(pyrrolidin-1-ylmethyl)phenyl)amino)-1,6-naphthyridin-2-yl)-1H-benzo[d]imidazole-2-carboxamide], no more than 1 µM; with `O=C(NCCCN1CCCCC1)c1cc2ccc(-c3cc(NCCCN4CCCCC4)c4cnccc4n3)cc2s1` [N-(3-(piperidin-1-yl)propyl)-6-(4-(3-(piperidin-1-yl)propylamino)-1,6-naphthyridin-2-yl)benzo[b]thiophene-2-carboxamide], no more than 1 µM.

`CN1CCC(CNC(=O)CCc2ccc(-c3cc(NCCCN4CCCCC4)c4cnccc4n3)cc2)CC1` [N-((1-Methylpiperidin-4-yl)methyl)-3-(4-(4-(3-(piperidin-1-yl)propylamino)-1,6-naphthyridin-2-yl)phenyl)propanamide] displayed an IC50 of no more than 1 µM. With `CCN1CCC(CNC(=O)COCc2ccc(-c3cc(NCCCN4CCCCC4)c4cnccc4n3)cc2)CC1` [N-((1-ethylpiperidin-4-yl)methyl)-2-(4-(4-(3-(piperidin-1-yl)propylamino)-1,6-naphthyridin-2-yl)benzyloxy)acetamide] the figure was 1 to 20 µM; with `CCN1CCC(CNC(=O)CCOc2ccc(-c3cc(NCCCN4CCCCC4)c4cnccc4n3)cc2)CC1` [N-((1-ethylpiperidin-4-yl)methyl)-3-(4-(4-((3-(piperidin-1-yl)propyl)amino)-1,6-naphthyridin-2-yl)phenoxy)propanamide], no less than 20 µM. Compound `CN1CCC(CNC(=O)COCc2ccc(-c3cc(NCCCN4CCCCC4)c4cnccc4n3)cc2)CC1` [N-((1-methylpiperidin-4-yl)methyl)-2-(4-(4-(3-(piperidin-1-yl)propylamino)-1,6-naphthyridin-2-yl)benzyloxy)acetamide] gave an IC50 of no more than 1 µM. In the case of `CN1CCC(CNC(=O)C#Cc2ccc(-c3cc(NCCCN4CCCCC4)c4cnccc4n3)cc2)CC1` [N-((1-methylpiperidin-4-yl)methyl)-3-(4-(4-((3-(piperidin-1-yl)propyl)amino)-1,6-naphthyridin-2-yl)phenyl)propiolamide] it was 1 to 20 µM; in that of `O=C(c1cc2ccc(-c3cc(NCCCN4CCCCC4)c4cnccc4n3)cc2s1)N1CCNCC1` [Piperazin-1-yl(6-(4-(3-(piperidin-1-yl)propylamino)-1,6-naphthyridin-2-yl)benzo[b]thiophen-2-yl)methanone], no more than 1 µM. Take `O=C(c1nc2ccc(-c3cc(NCCCN4CCCCC4)c4cnccc4n3)cc2s1)N1CCNCC1` [Piperazin-1-yl(6-(4-(3-(piperidin-1-yl)propylamino)-1,6-naphthyridin-2-yl)benzo[d]thiazol-2-yl)methanone]: the IC50 fell in the range of 1 to 20 µM. The compound `CCOC(=O)c1cc2cc(-c3cc(NCCCN4CCCCC4)c4cnccc4n3)ccc2n1C` [ethyl 1-methyl-5-(4-((3-(piperidin-1-yl)propyl)amino)-1,6-naphthyridin-2-yl)-1H-indole-2-carboxylate] gave an IC50 of no more than 1 µM.

On to `COC(=O)c1ccc(-c2cc(NCCCN3CCCCC3)c3cnccc3n2)c(C(N)=O)c1` [methyl 3-carbamoyl-4-(4-((3-(piperidin-1-yl)propyl)amino)-1,6-naphthyridin-2-yl)benzoate], for which the IC50 was in the range of 1 to 20 µM. As to “methyl-N-(1-methylpiperidin-4-yl)-5-(4-((3-(piperidin-1-yl)propyl)amino)-1,6-naphthyridin-2-yl)-1H-pyrrolo[3,2-b]pyridine-2-carboxamide”, the IC50 fell in the range of 1 to 20 µM.
